The source made the active and inactive calls.
Columns and labels:
[1] = biological target: T1, Carboxy-terminal domain RNA polymerase II polypeptide A small phosphatase 1 (Homo sapiens, UniProt Q9GZU7); assay: inhibitors of CTDSP1, concentration-response testing, biochemical assay, absorbance-based, actives from ultra-high-throughput screening (AID 540297); format: functional
T1 sequence (Q9GZU7 whole entry): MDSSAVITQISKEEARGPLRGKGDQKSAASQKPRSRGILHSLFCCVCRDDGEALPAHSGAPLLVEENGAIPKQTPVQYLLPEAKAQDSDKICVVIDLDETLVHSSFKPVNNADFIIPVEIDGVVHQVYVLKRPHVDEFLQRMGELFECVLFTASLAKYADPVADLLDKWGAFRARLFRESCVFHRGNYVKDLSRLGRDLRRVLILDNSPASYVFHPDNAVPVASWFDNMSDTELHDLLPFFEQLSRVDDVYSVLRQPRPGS

[2] = biological target: FAD-linked sulfhydryl oxidase ALR (Homo sapiens, UniProt P55789); assay: inhibitors of human ALR sulfhydryl oxidase, dose response, biochemical, H2O2 detection, luminescence, cherry-pick (AID 493248)
Sequence of FAD-linked sulfhydryl oxidase ALR (P55789 whole entry): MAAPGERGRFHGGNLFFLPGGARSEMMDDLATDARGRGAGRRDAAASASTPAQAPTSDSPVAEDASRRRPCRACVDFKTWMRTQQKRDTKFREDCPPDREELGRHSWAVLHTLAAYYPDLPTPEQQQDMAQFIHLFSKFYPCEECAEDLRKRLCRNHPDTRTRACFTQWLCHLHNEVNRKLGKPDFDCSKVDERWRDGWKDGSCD

[3] = biological target: T2, Calpain-2 catalytic subunit (Sus scrofa, UniProt P43367); assay: pig calpain II inhibitor potency, dose response, biochemical, fluorogenic peptide substrate (AID 1420); format: functional
T2 sequence (P43367 whole entry): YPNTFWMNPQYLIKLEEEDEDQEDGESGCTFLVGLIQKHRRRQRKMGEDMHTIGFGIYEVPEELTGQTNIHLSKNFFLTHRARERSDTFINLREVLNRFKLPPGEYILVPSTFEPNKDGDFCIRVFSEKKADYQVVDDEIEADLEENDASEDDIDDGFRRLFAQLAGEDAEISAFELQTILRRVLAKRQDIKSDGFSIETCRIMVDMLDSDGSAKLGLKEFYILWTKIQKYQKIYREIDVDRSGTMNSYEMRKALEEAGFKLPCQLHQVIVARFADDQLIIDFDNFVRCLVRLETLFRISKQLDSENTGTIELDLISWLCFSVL

[4] = biological target: Large T antigen (Simian virus 40, UniProt P03070); format: functional, Betapolyomavirus macacae;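 note: Confirmatory-stage PubChem screen for compounds that inhibit SV40 T antigen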
Sequence of Large T antigen (P03070 whole entry): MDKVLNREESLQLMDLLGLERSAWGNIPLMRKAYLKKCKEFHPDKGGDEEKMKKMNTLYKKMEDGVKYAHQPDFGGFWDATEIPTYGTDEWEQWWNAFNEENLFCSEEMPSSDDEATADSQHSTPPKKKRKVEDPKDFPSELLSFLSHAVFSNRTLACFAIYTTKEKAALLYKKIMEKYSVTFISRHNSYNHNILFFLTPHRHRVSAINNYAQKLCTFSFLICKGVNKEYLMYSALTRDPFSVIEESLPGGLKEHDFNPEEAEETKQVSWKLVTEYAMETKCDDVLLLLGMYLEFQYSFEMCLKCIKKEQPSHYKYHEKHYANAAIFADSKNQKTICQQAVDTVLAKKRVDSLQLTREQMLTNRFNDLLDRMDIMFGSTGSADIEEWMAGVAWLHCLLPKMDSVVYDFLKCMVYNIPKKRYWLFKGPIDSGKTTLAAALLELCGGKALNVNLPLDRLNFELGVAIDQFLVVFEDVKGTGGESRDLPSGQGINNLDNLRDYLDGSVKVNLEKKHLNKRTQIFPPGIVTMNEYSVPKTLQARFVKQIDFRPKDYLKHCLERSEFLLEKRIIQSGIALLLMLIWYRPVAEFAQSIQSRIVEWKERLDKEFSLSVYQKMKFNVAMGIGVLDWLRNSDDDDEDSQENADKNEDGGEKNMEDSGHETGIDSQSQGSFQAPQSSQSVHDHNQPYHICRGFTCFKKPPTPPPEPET

[5] = NIH-3T3 fibroblast cytotoxicity, dose response, cytotoxicity control, cell-based, fluorescence, Alamar Blue, secondary assay (AID 2327); format: functional;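 note: NIH-3T3 mouse fibroblasts cultured with fluconazole at 8 µg/mL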
[6] = C. albicans growth with fluconazole, confirmation, fluorescence, retest (AID 2467); format: functional, cell-based
[7] = Luminescence Cell-Based Dose Confirmation HTS to Identify Activators of 5'UTR Stem-Loop Driven Alpha-Synuclein mRNA Translation in H4 Neuroglioblastoma Cells. [Related pubchem assays: 1829 (Project Summary), 1814 (Primary HTS)]; format: functional
[8] = Luminescence Cell-Based Dose Response HTS to Identify Activators of Luciferase Translation or Activity in H4 […] Cells. [Related pubchem assays: 1829 (Project Summary), 1814 (Primary HTS)]; format: functional
[9] = tested on: H4; assay: Luminescence Cell-Based Dose Response HTS to Identify Activators of 5'UTR Stem-Loop Driven Prion Protein mRNA Translation in H4 Neuroglioblastoma Cells. [Related pubchem assays: 1829 (Project Summary), 1814 (Primary HTS)]; format: functional; settings: Homo sapiens
[10] = inhibitors of intracellular T. cruzi replication, confirmation, NIH3T3 host cells, beta-gal luminescence (AID 2044); format: functional, cell-based;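 note: intracellular parasites grown in NIH/3T3 mouse fibroblasts as host cells; luminescent beta-galactosidase reporter signal from transgenic T. cruzi replicating inside host cells; inhibitors lower the luminescence signal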
[11] = cytotoxicity toward NIH3T3 fibroblasts, dose response, counter-screen, cell-based, ATP luminescence, mouse fibroblasts (AID 2010); format: functional;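 note: cells exposed to compound for about 90 hours before reading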

Compound: O=C(Nc1ccnc(O)n1)c1sc2ccccc2c1Cl
- IC50 [1]: 16.2 µM (active)

Compound: O=C(C1CCC(=O)N(C2CC2)C1)N1CCN(c2ccc(Cl)cc2)CC1 (stereo not given)
- AC50 [2]: 15.8 µM (active)

Compound: COc1ccc([N+](=O)[O-])cc1NC(=O)CSc1ccc2ccccc2c1
- IC50 [3]: 2.92 µM (not active)

Compound: CSCc1ccc(C(=O)NC(C)c2ccc(-n3ccnc3)cc2)cc1 (stereo not given)
- AC50 [2]: 1.33 µM (active)

Compound: CCOc1c(Br)cc(CNc2ccc(N3CCN(C(C)=O)CC3)cc2)cc1OC
- IC50 [4]: 6.23 µM (active)

Compound: Cc1c(C=O)c2ccccc2n1CC(=O)NC(C)c1ccccc1 (stereo not given)
- IC50 [3]: > 50 µM (not active)

Compound: COc1c(Cl)cc(C(=O)Nc2ccccc2-c2ccccc2)cc1Cl
- IC50 [3]: > 50 µM (not active)

Compound: CNC(=O)COC(=O)CNC(=O)c1cc(Cl)cc([N+](=O)[O-])c1
- IC50 [3]: > 50 µM (not active)

Compound: CCCCCCCCC(=O)NNC(=O)c1c(O)c2ccccc2n(CC)c1=O
- EC50 [5]: > 150 µM (inactive)
- EC50 [6]: 2.96 µM (active)

Compound: O=C1CSC(c2cccc(F)c2)N1c1ccccc1 (stereo not given)
- AC50 [2]: 1.22 µM (active)

Compound: CC(NC(=O)C(=O)N1CCCCC1)C(c1cccs1)N1CCN(c2ccccc2)CC1 (stereo not given)
- AC50 [2]: 1.16 µM (active)

Compound: CCN(CC)c1ccc(NC(=O)CSc2nc3nc(C)cc(C)c3c(=O)[nH]2)cc1
- IC50 [4]: 10.2 µM (active)

Compound: Cc1ccc(-c2nc3ccc(Cl)cc3c(=O)n2O)cc1
- EC50 [5]: > 160 µM (inactive)
- EC50 [6]: 1.58 µM (active)

Compound: Cc1cccc(Nc2ncccc2C(=O)NCc2cccs2)c1C
- IC50 [3]: 14.4 µM (not active)

Compound: O=C(CC1C(=O)NCCN1Cc1ccc(F)cc1)NCCN1CCCc2ccccc21 (stereo not given)
- AC50 [2]: 3.16 µM (active)

Compound: COc1ccc(Nc2ccc(Cl)cc2)c(C(=O)O)c1
- IC50 [4]: 18 µM (active)

Compound: CCN(CC)C(=O)/C(=C/c1ccc2c(c1)OCO2)NC(=O)c1ccc(Br)cc1
- EC50 [5]: > 150 µM (inactive)
- EC50 [6]: 3.58 µM (active)

Compound: c1cnc2c(OCc3nc4ccccc4[nH]3)cccc2c1
- EC50 [7]: 0.396 µM (active)
- EC50 [8]: 7.06 µM (active)
- EC50 [9]: 5.66 µM (active)
- IC50 [3]: 7.55 µM (not active)

Compound: CC1=C(C(=O)c2ccccc2)C(c2ccc(O)cc2)NC(S)=N1 (stereo not given)
- IC50 [4]: > 100 µM (active)

Compound: CCCCN(CC)CCCN=C(S)Nc1ccc2nc3n(c(=O)c2c1)CCCCC3
- EC50 [10]: 1.29 µM (active)
- IC50 [3]: < 0.4 µM (not active)
- EC50 [11]: > 60 µM (not active)

Compound: Cc1ccc(C(=O)N(Cc2ccccc2)C(C)(C)C)cc1C
- IC50 [3]: 16.6 µM (not active)

Compound: CCc1cc2c(Nc3ccc(O)cc3)nc(C)nc2s1
- IC50 [4]: 23.7 µM (active)

Compound: CCc1cc2c(=O)n(Cc3ccccc3)c(SC3CCOC3=O)nc2s1 (stereo not given)
- IC50 [3]: 12.6 µM (not active)

Compound: CCCCNC(=O)COC(=O)c1c2c(nc3ccccc13)CCC2
- IC50 [1]: 9.63 µM (active)

Compound: CN(C)c1ccc(/C=C/c2cc[n+](C)cc2)cc1
- EC50 [10]: 0.723 µM (active)
- EC50 [11]: > 60 µM (not active)
- AC50 [2]: 0.416 µM (active)
